Here are results for 20 compounds from patent US20240150377A1, “MODULATORS OF CYSTIC FIBROSIS TRANSMEMBRANE CONDUCTANCE REGULATOR” (VERTEX PHARMACEUTICALS INCORPORATED, priority 2020, published 2024).

The target in assay [1] is T1, F508del (Homo sapiens, UniProt P13569, DEL508-508).
T1 construct: expressed in transfected cells
Put plainly: 3T3 assay: membrane potential optical assay for F508del correction. Type of assay: cell-based. The settings on record: F508del NIH 3T3 cells; for Emax: NIH3T3, compared to lumacaftor in combination with acutely added 300 nM Ivacaftor, read-out: 3T3 Max Activity; for EC50: 18-24 hours at 37° C., forskolin, acutely added 300 nM Ivacaftor. An excerpt: 1. Membrane Potential Optical Methods for Assaying F508del Modulation Properties of Compounds
The assay utilizes fluorescent voltage sensing dyes to measure changes in membrane potential using a fluorescent plate reader (e.g., FLIPR III, Molecular Devices, Inc.) as a readout for increase in functional F508del in NIH 3T3 cells. The driving force for the response is the creation of a chloride ion gradient in conjunction with channel activation by a single liquid addition step after the cells have previously been treated with compounds and subsequently loaded with a voltage sensing dye.
2. Identification of Corrector Compounds
To identify correctors of F508del, a single-addition HTS assay format was developed. This HTS assay utilizes fluorescent voltage sensing dyes to measure changes in membrane potential on the FLIPR III as a measurement for increase in gating (conductance) of F508del in F508del NIH 3T3 cells. The F508del NIH 3T3 cell cultures were incubated with the corrector compounds at a range of concentrations for 18-24 hours at 37° C., and subsequently loaded with a redistribution dye. The driving force for the response is a Cl^− ion gradient in conjunction with channel activation with forskolin in a single liquid addition step using a fluorescent plate reader such as FLIPR III.
Bath Solution #1: (in mM) NaCl 160, KCl 4.5, CaCl2) 2, MgCl2 1, HEPES 10, pH 7.4 with NaOH.
Chloride-free bath solution: Chloride salts in Bath Solution #1 (above) are substituted with gluconate salts.
NIH3T3 mouse fibroblasts stably expressing F508del are used for optical measurements of membrane potential. The cells are maintained at 37° C. in 5% CO2 and 90% humidity in Dulbecco's modified Eagle's medium supplemented with 2 mM glutamine, 10% fetal bovine serum, 1× NEAA, b-ME, 1×pen/strep, and 25 mM HEPES in 175 cm^2 culture flasks. For all optical assays, the cells were seeded at ˜20,000/well in 384-well Matrigel-coated plates. For the correction assays, the cells are cultured at 37° C. with and without compounds for 16-24 hours.

Assay [2] addresses CFTR (Homo sapiens, UniProt P13569). Put plainly: Membrane potential dye, Enteroid Assay A. Type of assay: cell-based. The settings on record: for Ent. A Max Activity: chloride transport as % of triple combination control (Enteroid Assay A); for EC50: human enteroid cells, 18-24 hours, acute 10 μM forskolin and 300 nM ivacaftor, read-out: Ent. A EC50. The method in brief: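 Human intestinal enteroids incubated 18-24 h at 37 °C with test compound, then loaded with 20 μM methyl oxonol (with CaCC inhibitors). Chloride transport triggered in chloride-free buffer with 10 μM forskolin, 100 μM IBMX, 300 nM Compound III; fluorescence read 15 min, expressed as % of a triple-combination corrector/potentiator control.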

Like-named read-outs stand apart in the source and are kept apart here. Bounds are passed on as bounds.

Chain of CFTR (P13569 with tags, fused parts or gaps DEL508-508): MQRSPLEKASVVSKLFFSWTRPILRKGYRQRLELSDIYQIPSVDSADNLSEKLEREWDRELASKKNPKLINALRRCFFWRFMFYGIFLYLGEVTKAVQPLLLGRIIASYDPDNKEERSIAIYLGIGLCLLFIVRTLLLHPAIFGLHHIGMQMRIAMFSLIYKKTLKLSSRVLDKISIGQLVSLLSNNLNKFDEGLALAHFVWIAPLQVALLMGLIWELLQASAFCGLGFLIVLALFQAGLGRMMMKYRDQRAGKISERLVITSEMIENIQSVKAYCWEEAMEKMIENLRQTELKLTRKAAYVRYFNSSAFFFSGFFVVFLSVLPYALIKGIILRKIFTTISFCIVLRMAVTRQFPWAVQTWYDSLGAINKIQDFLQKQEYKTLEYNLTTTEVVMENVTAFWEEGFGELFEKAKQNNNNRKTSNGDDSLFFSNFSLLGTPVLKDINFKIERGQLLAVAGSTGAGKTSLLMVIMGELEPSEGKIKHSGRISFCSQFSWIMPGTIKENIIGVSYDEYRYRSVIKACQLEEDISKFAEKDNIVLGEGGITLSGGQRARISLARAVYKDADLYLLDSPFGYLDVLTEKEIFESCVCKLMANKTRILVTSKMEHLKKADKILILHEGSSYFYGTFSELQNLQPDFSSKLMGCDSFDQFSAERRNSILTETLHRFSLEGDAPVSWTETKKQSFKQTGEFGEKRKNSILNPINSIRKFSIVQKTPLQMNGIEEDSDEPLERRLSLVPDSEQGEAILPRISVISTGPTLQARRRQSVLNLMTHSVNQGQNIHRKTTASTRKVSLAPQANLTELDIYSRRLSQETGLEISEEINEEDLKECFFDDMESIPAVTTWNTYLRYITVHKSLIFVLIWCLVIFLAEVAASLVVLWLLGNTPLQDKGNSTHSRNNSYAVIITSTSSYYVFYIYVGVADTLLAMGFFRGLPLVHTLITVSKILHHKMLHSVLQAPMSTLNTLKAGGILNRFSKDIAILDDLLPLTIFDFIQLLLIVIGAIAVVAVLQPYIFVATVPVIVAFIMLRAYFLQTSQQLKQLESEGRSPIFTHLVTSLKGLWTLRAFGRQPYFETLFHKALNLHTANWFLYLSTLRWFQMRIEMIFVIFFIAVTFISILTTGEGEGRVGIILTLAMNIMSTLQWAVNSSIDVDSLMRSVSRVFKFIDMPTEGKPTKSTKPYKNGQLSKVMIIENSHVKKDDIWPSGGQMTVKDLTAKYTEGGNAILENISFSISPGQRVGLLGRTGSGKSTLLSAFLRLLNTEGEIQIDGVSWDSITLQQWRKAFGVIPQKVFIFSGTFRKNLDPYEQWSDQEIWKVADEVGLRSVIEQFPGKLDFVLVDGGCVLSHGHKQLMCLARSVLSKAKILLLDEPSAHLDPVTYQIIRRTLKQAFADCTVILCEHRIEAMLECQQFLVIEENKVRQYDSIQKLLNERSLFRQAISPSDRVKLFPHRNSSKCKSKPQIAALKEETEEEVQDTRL
T1 sequence (P13569 with tags, fused parts or gaps DEL508-508): as above

For the compound `Cc1cccc(C)c1-c1cc2nc(n1)NS(=O)(=O)c1cccc(c1)C(=O)N(CCC1CCN(C(C)C)CC1)[C@H](CC(C)C)CO2` [Compound 85, (11R)-6-(2,6-Dimethylphenyl)-11-isobutyl-12-[2-(1-isopropyl-4-piperidyl)ethyl]-2,2-dioxo-9-oxa-2λ^6-thia-3,5,12,19-tetrazatricyclo[12.3.1.14,8]nonadeca-1(18),4(19),5,7,14,16-hexaen-13-one], in assay [1] (Table 7), the Emax is over 60% and the 50% effective concentration (EC50) was under 1000 nM. Moreover, in assay [2] (Table 7), the “Ent. A Max Activity” value is given as “+++ (+++ is >60%)” and the EC50 is under 1000 nM.
As for `Cc1cccc(C)c1-c1cc2nc(n1)NS(=O)(=O)c1cccc(c1)CN(Cc1cnn(-c3ccccc3)c1C)[C@H](CC(C)C)CO2` [Compound 1026], in assay [1] (Table 7), the Emax is over 60% and the concentration giving a half-maximal response (EC50) is under 1000 nM. In addition, in assay [2] (Table 7), the “Ent. A Max Activity” value is on record as “+++ (+++ is >60%)” and the half-maximal effective concentration (EC50) was under 1000 nM.
Take `Cc1cccc(C)c1-c1cc2nc(n1)NS(=O)(=O)c1cccc(c1)C(=O)N(CCO)[C@H](CC(C)C)CO2` [Compound 80, (11R)-6-(2,6-Dimethylphenyl)-12-(2-hydroxyethyl)-11-isobutyl-2,2-dioxo-9-oxa-2λ^6-thia-3,5,12,19-tetrazatricyclo[12.3.1.14,8]nonadeca-1(18),4(19),5,7,14,16-hexaen-13-one]: in assay [1] (Table 6), the Emax is over 60% and the EC50 was under 1000 nM. In addition, in assay [2] (Table 6), the “Ent. A Max Activity” value was “+++ (+++ is >60%)” and the 50% effective concentration (EC50) is under 1000 nM.
As for `Cc1cccc(C)c1-c1cc2nc(n1)NS(=O)(=O)c1cccc(c1)CN(CCC(C)(C)C)[C@H](CC(C)C)CO2` [Compound 1043], in assay [1] (Table 6), the Emax was over 60% and the EC50 was under 1000 nM. Besides, in assay [2] (Table 6), the “Ent. A Max Activity” value is listed as “+++ (+++ is >60%)” and the EC50 is under 1000 nM.
Regarding `Cc1cccc(C)c1-c1cc2nc(n1)NS(=O)(=O)c1cccc(c1)CN(CCCC1(C(F)(F)F)CC1)[C@H](CC(C)C)CO2` [Compound 1023], in assay [1] (Table 7), the Emax is over 60% and the EC50 was under 1000 nM. Further, in assay [2] (Table 7), the “Ent. A Max Activity” value is listed as “++ (++ is 30-60%)” and the 50% effective concentration (EC50) is under 1000 nM.
On to `Cc1cccc(C)c1-c1cc2nc(n1)NS(=O)(=O)c1cccc(c1)CN(Cc1cccc3c1OC(F)(F)O3)[C@H](CC(C)C)CO2` [Compound 1029], for which, in assay [1] (Table 7), the Emax was over 60% and the EC50 was under 1000 nM. In addition, in assay [2] (Table 7), the “Ent. A Max Activity” value is “++ (++ is 30-60%)” and the concentration giving a half-maximal response (EC50) is under 1000 nM.
With `CC(=O)N1CCC(CCN2C(=O)c3cccc(c3)S(=O)(=O)Nc3nc(cc(-c4c(C)cccc4C)n3)OC[C@H]2CC(C)C)CC1` [Compound 1107], in assay [1] (Table 7), the Emax is over 60% and the half-maximal effective concentration (EC50) is under 1000 nM. Also, in assay [2] (Table 7), the “Ent. A Max Activity” value was “+++ (+++ is >60%)” and the EC50 is under 1000 nM.
Regarding `Cc1cccc(C)c1-c1cc2nc(n1)NS(=O)(=O)c1cccc(c1)C(=O)N(C)[C@H](C)[C@@H](c1ccc(C(C)(C)C)cc1)O2` [Compound 339], in assay [1] (Table 6), the Emax is over 60% and the EC50 was under 1000 nM. In assay [2] (Table 6), the “Ent. A Max Activity” value is listed as “++ (++ is 30-60%)” and the half-maximal effective concentration (EC50) was under 1000 nM.
As to `Cc1cccc(C)c1-c1cc2nc(n1)NS(=O)(=O)c1cccc(c1)C(=O)N(C)C[C@@H](c1ccc(C(C)(C)C)cn1)O2` (single isomer, unassigned) [Compound 102, 10-(5-tert-butyl-2-pyridyl)-6-(2,6-dimethylphenyl)-12-methyl-2,2-dioxo-9-oxa-2λ^6-thia-3,5,12,19-tetrazatricyclo[12.3.1.14,8]nonadeca-1(18),4(19),5,7,14,16-hexaen-13-one], in assay [1] (Table 7), the Emax is over 60% and the concentration for a half-maximal effect (EC50) was under 1000 nM. Further, in assay [2] (Table 7), the “Ent. A Max Activity” value is given as “+ (+ is <30%)” and the EC50 is 1000 to 3000 nM.
For `Cc1cccc(C)c1-c1cc2nc(n1)NS(=O)(=O)c1cccc(c1)C(=O)N(C)[C@H](C)[C@H](c1ccc(C(C)(C)C)cc1)O2` [Compound 338], in assay [1] (Table 6), the Emax is over 60% and the concentration giving a half-maximal response (EC50) was under 1000 nM. Besides, the “Ent. A Max Activity” value in assay [2] (Table 6) was “+ (+ is <30%)”.
For `Cc1cccc(C)c1-c1cc2nc(n1)NS(=O)(=O)c1cccc(c1)CN(CCC1(C(F)(F)F)CC1)[C@H](CC(C)C)CO2` [Compound 1024], in assay [1] (Table 7), the Emax was over 60% and the EC50 was under 1000 nM. Also, in assay [2] (Table 7), the “Ent. A Max Activity” value is “++ (++ is 30-60%)” and the EC50 was under 1000 nM.
As to `Cc1cccc(C)c1-c1cc2nc(n1)NS(=O)(=O)c1cccc(c1)C(=O)N(C)C[C@H](c1ccc(C3CC3)cc1)O2` [Compound 669], in assay [1] (Table 7), the Emax was over 60% and the EC50 was under 1000 nM. For the same compound, in assay [2] (Table 7), the “Ent. A Max Activity” value was “++ (++ is 30-60%)” and the EC50 was under 1000 nM.
Regarding `Cc1cccc(C)c1-c1cc2nc(n1)NS(=O)(=O)c1cccc(c1)C(=O)N(Cc1ccc(C#N)cc1)[C@H](CC(C)C)CO2` [Compound 78, 4-[[(11R)-6-(2,6-Dimethylphenyl)-11-isobutyl-2,2,13-trioxo-9-oxa-2λ^6-thia-3,5,12,19-tetrazatricyclo[12.3.1.14,8]nonadeca-1(18),4(19),5,7,14,16-hexaen-12-yl]methyl]benzonitrile], in assay [1] (Table 6), the Emax is over 60% and the half-maximal effective concentration (EC50) is under 1000 nM. For the same compound, in assay [2] (Table 6), the “Ent. A Max Activity” value is listed as “+++ (+++ is >60%)” and the EC50 is under 1000 nM.
In the case of `Cc1cccc(C)c1-c1cc2nc(n1)NS(=O)(=O)c1cccc(c1)C(=O)N(C)[C@H](CC1CCCCC1)O2` [Compound 1193], in assay [1] (Table 6), the Emax is over 60% and the EC50 was under 1000 nM. Also, in assay [2] (Table 6), the “Ent. A Max Activity” value was “+++ (+++ is >60%)” and the EC50 was under 1000 nM.
In the case of `Cc1cccc(C)c1-c1cc2nc(n1)NS(=O)(=O)c1cccc(c1)C(=O)N(CC(C)C)[C@H](CC(C)C)CO2` [Compound 865], in assay [1] (Table 6), the Emax is over 60% and the EC50 is under 1000 nM. Moreover, in assay [2] (Table 6), the “Ent. A Max Activity” value was “+++ (+++ is >60%)” and the EC50 is under 1000 nM.
Turning to `COc1ccc(CN2C(=O)c3cccc(c3)S(=O)(=O)Nc3nc(cc(-c4c(C)cccc4C)n3)OC[C@H]2CC(C)C)cc1` [Compound 347], in assay [1] (Table 6), the Emax was over 60% and the concentration giving a half-maximal response (EC50) is under 1000 nM. For the same compound, in assay [2] (Table 6), the “Ent. A Max Activity” value is “+++ (+++ is >60%)” and the concentration giving a half-maximal response (EC50) was under 1000 nM.
For the compound `CNC(=O)c1ccc(CN2C(=O)c3cccc(c3)S(=O)(=O)Nc3nc(cc(-c4c(C)cccc4C)n3)OC[C@H]2CC(C)C)cc1` [Compound 419], in assay [1] (Table 6), the Emax is over 60% and the EC50 is under 1000 nM. In assay [2] (Table 6), the “Ent. A Max Activity” value is “+++ (+++ is >60%)” and the EC50 was under 1000 nM.
For the compound `Cc1cccc(C)c1-c1cc2nc(n1)NS(=O)(=O)c1cccc(c1)C(=O)N(CCCC1CCOCC1)[C@H](CC(C)C)CO2` [Compound 353], in assay [1] (Table 6), the Emax was over 60% and the EC50 is under 1000 nM. Further, in assay [2] (Table 6), the “Ent. A Max Activity” value is reported as “+++ (+++ is >60%)” and the EC50 is under 1000 nM.
For `Cc1cccc(C)c1-c1cc2nc(n1)NS(=O)(=O)c1cccc(c1)CN(Cc1ccnnc1)[C@H](CC(C)C)CO2` [Compound 47, (11R)-6-(2,6-dimethylphenyl)-11-(2-methylpropyl)-12-[(pyridazin-4-yl)methyl]-9-oxa-2λ^6-thia-3,5,12,19-tetraazatricyclo[12.3.1.14,8]nonadeca-1(17),4,6,8(19),14(18),15-hexaene-2,2-dione], in assay [1] (Table 7), the Emax was over 60% and the half-maximal effective concentration (EC50) is under 1000 nM. In assay [2] (Table 7), the “Ent. A Max Activity” value was “+++ (+++ is >60%)” and the EC50 is under 1000 nM.
In the case of `Cc1cccc(C)c1-c1cc2nc(n1)NS(=O)(=O)c1cccc(c1)C(=O)N(CCC1CCOCC1)[C@H](CC(C)C)CO2` [Compound 79, (11R)-6-(2,6-Dimethylphenyl)-11-isobutyl-2,2-dioxo-12-(2-tetrahydropyran-4-ylethyl)-9-oxa-2λ^6-thia-3,5,12,19-tetrazatricyclo[12.3.1.14,8]nonadeca-1(18),4(19),5,7,14,16-hexaen-13-one], in assay [1] (Table 6), the Emax is over 60% and the EC50 was under 1000 nM. Moreover, in assay [2] (Table 6), the “Ent. A Max Activity” value was “+++ (+++ is >60%)” and the concentration for a half-maximal effect (EC50) is under 1000 nM.
